Measured values: paper PMC7252619 (PLoS ONE, 2020)
Read-outs that look alike come from different tables or passages of the source.

Tests used:
NEK2 = molecular target: T1, NEK2 (Homo sapiens, UniProt P51955); assay: Kinase activity test (ReactionBiology), % enzyme activity relative to DMSO; type: biochemical; conditions: NEK2;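 note: FDA-approved drugs chosen by structure-based repositioning, each screened at 10 or 1 µM for kinase activity, expressed as percent of DMSO controls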
T1 construct: purchased ReactionBiology
T1 sequence (P51955 1-445): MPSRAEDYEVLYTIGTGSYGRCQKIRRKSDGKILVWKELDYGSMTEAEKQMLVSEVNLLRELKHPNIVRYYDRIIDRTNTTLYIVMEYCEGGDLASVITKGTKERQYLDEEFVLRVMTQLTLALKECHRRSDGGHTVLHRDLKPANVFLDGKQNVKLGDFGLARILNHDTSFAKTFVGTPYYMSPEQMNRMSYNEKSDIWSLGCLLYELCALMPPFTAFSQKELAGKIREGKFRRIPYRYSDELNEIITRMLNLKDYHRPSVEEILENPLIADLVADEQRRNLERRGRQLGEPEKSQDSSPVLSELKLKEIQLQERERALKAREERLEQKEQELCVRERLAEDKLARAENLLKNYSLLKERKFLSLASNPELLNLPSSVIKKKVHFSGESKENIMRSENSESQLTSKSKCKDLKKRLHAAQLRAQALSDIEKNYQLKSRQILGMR

MAP2K2 = molecular target: T2, MAP2K2 (Homo sapiens, UniProt P36507); assay: as above; type: biochemical; conditions: MEK2
T2 construct: purchased ReactionBiology
T2 sequence (P36507 whole entry): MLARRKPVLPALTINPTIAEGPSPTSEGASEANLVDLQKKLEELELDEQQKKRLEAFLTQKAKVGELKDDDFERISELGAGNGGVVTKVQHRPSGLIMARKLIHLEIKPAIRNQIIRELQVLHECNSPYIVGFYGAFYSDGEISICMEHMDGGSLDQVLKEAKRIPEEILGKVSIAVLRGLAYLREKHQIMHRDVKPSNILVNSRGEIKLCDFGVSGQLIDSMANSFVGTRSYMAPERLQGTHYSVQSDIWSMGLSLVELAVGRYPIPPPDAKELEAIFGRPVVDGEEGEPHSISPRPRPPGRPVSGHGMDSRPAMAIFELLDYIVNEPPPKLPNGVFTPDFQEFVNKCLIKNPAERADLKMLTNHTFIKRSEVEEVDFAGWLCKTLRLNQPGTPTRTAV

VEGFR2 = VEGFR2 (Homo sapiens, UniProt P35968); assay: as above; type: biochemical; parameters: purchased ReactionBiology; conditions: VEGFR2;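 note: VEGFR2 was one member of a ten-kinase screening panel testing marketed FDA-approved drugs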
Sequence of VEGFR2 (P35968 20-1356): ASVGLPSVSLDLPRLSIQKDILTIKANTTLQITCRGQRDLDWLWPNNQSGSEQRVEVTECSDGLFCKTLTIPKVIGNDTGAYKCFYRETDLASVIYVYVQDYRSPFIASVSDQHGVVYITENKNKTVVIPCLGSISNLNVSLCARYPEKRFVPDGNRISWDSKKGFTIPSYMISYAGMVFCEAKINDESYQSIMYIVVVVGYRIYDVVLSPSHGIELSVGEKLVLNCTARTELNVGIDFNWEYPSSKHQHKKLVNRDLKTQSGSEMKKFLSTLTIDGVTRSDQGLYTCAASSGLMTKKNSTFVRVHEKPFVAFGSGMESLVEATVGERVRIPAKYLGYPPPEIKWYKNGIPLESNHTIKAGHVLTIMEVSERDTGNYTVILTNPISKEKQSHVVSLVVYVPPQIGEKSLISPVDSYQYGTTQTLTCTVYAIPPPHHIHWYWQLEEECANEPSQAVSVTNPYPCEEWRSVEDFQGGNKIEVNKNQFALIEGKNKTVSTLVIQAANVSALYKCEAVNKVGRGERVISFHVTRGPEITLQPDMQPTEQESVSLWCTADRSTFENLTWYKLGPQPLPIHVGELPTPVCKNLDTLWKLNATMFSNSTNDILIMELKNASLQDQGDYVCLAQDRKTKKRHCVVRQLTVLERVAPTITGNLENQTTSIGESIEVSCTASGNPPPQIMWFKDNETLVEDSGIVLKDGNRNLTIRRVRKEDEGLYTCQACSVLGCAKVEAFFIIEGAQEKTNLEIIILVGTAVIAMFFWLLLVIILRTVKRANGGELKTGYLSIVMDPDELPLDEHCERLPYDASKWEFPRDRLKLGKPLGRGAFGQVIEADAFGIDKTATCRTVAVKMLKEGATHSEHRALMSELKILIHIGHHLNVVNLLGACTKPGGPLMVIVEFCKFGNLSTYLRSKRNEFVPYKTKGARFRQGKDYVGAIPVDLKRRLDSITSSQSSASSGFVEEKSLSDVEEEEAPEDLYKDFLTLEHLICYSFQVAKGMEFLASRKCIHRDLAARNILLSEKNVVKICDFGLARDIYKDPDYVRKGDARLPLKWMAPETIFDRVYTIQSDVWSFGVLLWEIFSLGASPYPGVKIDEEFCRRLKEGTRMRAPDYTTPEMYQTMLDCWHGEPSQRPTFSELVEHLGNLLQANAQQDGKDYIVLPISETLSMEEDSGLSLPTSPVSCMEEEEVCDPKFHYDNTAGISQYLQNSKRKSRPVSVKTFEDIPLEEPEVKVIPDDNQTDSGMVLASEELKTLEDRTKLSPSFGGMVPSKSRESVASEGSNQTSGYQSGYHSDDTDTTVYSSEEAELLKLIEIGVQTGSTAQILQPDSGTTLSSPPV

[1] = WST-1 cytotoxicity assay on RPMI1788 cells (B-cell line); type: cell-based, human; conditions: human, RPMI1788 cells (B-cell line), mean of 4 independent measures, read-out: Cytotoxicity, WST-1 RPMI 1788 IC 50 (µM) Mean
[2] = WST-1 cytotoxicity assay on Jurkat cells (T-cell line); type: cell-based, human; conditions: human, Jurkat cells (T-cell line), mean of 4 independent measures, read-out: Cytotoxicity, WST-1 Jurkat IC 50 (µM) Mean
Procedure: Compounds were prepared as 10 mM stock solutions in dimethylsulfoxide (DMSO)and were tested at 50-10-1-0.1-0.01 and 0.001 μM in the 4 assays.
The human B cell line RPMI1788 (American Type Culture Collection, USA) and the human T cell line Jurkat (European Collection of Cell Cultures, ECACC, England) were maintained in RPMI1640 culture medium (BioWhittaker®, Lonza, Verviers, Belgium) containing 10% foetal calf serum (FCS, HyClone® Thermo Scientific, United Kingdom) and 5 μg/mL gentamicin sulphate (BioWhittaker®, Lonza, Verviers, Belgium) at 37°C and 5% CO2.
WST-1 assays on RPMI-1788 cells and Jurkat cells were performed as follows: 20 μL of test compound dilution were added to each well containing exponential growing cells and the plates were incubated for 48 h at 37°C, 5% CO2. Untreated cells and positive control (1% triton X-100, for the last 15 min) served as reference for maximum and minimum viability. At the end of incubation 100 μL of supernatant were removed and replaced by 10 μL of WST-1 solution (Cell Proliferation Reagent WST-1, Roche Applied Science).

DAPK1 = molecular target: T3, DAPK1 (Homo sapiens, UniProt P53355); assay: Kinase activity test (ReactionBiology), % enzyme activity relative to DMSO; type: biochemical; conditions: DAPK1; for % Enzyme Activity (relative to DMSO controls), Data 1: replicate Data 1; for % Enzyme Activity (relative to DMSO controls), Data 2: replicate Data 2
T3 construct: purchased ReactionBiology
T3 sequence (P53355 whole entry): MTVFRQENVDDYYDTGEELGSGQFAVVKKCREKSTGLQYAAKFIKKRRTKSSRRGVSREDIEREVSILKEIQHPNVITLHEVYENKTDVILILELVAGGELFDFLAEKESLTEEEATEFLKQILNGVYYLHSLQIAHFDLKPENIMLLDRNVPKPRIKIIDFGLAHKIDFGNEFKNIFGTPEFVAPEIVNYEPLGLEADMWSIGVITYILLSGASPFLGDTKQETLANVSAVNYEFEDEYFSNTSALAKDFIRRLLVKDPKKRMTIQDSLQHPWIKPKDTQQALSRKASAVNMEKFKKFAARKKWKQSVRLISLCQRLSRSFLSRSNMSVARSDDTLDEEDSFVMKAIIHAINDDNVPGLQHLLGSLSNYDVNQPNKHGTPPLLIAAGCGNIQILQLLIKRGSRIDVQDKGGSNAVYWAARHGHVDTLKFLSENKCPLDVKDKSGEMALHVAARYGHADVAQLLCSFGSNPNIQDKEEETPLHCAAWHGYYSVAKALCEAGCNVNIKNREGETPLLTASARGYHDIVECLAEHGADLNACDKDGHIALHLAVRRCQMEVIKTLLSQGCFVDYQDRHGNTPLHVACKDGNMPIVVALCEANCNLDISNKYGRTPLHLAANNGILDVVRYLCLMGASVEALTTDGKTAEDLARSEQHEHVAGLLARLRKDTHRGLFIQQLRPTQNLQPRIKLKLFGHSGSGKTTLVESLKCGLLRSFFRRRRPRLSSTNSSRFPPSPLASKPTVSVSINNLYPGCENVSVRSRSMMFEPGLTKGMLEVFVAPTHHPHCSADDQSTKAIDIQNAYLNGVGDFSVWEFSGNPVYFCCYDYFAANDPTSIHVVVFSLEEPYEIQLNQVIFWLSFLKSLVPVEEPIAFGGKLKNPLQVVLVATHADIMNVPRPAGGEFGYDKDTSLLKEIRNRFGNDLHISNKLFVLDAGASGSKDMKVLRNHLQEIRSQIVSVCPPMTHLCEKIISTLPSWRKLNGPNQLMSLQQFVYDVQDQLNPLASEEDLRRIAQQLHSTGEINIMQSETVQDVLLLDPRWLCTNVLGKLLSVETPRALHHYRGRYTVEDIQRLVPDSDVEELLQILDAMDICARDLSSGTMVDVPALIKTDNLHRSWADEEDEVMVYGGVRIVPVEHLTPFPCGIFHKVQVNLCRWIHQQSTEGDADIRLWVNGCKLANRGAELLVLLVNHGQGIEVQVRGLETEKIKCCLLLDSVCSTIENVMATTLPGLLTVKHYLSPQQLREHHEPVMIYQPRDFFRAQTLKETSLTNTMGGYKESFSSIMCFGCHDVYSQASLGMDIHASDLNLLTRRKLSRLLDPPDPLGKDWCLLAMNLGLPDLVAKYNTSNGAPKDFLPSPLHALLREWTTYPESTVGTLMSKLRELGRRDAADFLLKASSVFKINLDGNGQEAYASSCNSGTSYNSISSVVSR

CDC7 = molecular target: T4, CDC7 (Homo sapiens, UniProt O00311); assay: as above; type: biochemical; conditions: CDC7; for % Enzyme Activity (relative to DMSO controls), Data 1: replicate Data 1; for % Enzyme Activity (relative to DMSO controls), Data 2: replicate Data 2;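 for all read-outs here: each drug screened at both 10 µM and 1 µM across a ten-kinase panel, activity expressed as percent of DMSO control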
T4 construct: purchased ReactionBiology
T4 sequence (O00311 whole entry): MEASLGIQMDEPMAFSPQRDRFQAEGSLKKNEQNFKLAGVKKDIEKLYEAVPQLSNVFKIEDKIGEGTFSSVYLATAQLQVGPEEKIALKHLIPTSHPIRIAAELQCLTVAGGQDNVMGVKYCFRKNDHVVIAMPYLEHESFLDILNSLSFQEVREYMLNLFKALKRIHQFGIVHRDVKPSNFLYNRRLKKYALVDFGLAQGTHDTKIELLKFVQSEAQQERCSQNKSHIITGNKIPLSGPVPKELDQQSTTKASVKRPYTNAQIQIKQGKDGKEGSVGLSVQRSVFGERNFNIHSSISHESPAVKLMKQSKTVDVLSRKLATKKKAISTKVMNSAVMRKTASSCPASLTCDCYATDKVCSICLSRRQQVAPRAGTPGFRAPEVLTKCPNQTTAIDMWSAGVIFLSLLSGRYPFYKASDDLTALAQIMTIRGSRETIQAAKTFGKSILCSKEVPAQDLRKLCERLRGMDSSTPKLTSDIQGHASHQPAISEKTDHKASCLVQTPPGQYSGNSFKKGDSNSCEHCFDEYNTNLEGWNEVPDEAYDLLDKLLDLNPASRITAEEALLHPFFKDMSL
T4 sequence (Q9UBU7 whole entry partner): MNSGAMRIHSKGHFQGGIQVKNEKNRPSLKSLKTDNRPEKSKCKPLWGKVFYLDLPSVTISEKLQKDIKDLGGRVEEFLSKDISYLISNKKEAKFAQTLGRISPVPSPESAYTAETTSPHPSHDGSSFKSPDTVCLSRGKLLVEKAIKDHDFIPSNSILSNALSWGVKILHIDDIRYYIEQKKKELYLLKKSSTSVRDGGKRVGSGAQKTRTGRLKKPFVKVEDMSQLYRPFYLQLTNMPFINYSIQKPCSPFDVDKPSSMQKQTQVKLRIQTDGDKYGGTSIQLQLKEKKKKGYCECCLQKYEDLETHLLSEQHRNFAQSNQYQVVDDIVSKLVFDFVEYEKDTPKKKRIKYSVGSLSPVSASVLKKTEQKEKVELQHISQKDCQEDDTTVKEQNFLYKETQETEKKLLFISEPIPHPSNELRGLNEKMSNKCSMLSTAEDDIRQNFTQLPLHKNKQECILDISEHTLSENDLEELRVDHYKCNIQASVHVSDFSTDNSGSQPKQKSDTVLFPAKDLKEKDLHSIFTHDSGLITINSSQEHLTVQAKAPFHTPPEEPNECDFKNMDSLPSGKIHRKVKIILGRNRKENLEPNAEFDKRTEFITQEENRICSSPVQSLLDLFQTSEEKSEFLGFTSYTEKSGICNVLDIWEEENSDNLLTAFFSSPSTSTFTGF

[3] = Average, read-out: % Enzyme Activity (relative to DMSO controls), Average
[4] = replicate Data 1, read-out: % Enzyme Activity (relative to DMSO controls), Data 1
[5] = replicate Data 2, read-out: % Enzyme Activity (relative to DMSO controls), Data 2
[6] = 1 uM, Average, read-out: % Enzyme Activity (relative to DMSO controls), Average
[7] = 1 uM, replicate Data 1, read-out: % Enzyme Activity (relative to DMSO controls), Data 1
[8] = 1 uM, replicate Data 2, read-out: % Enzyme Activity (relative to DMSO controls), Data 2
[9] = 10 uM, Average, read-out: % Enzyme Activity (relative to DMSO controls), Average
[10] = 10 uM, replicate Data 1, read-out: % Enzyme Activity (relative to DMSO controls), Data 1
[11] = 10 uM, replicate Data 2, read-out: % Enzyme Activity (relative to DMSO controls), Data 2

N[C@@H](CC(=O)N1CCn2c(nnc2C(F)(F)F)C1)Cc1cc(F)c(F)cc1F [Sitagliptin]
remaining activity at 1 µM (NEK2; [3]): 92.4% | remaining activity at 1 µM (NEK2; [4]): 89.3% | remaining activity at 1 µM (NEK2; [5]): 95.5% | remaining activity at 10 µM (NEK2; [3]): 86.5% | remaining activity at 10 µM (NEK2; [4]): 82.7% | remaining activity at 10 µM (NEK2; [5]): 90.3% | remaining activity at 1 µM (MAP2K2; [6]): 100% | remaining activity at 1 µM (MAP2K2; [7]): 101% | remaining activity at 1 µM (MAP2K2; [8]): 99.3% | remaining activity at 10 µM (MAP2K2; [9]): 94.3% | remaining activity at 10 µM (MAP2K2; [10]): 96.2% | remaining activity at 10 µM (MAP2K2; [11]): 92.4% | remaining activity at 1 µM (VEGFR2; [6]): 97.9% | remaining activity at 1 µM (VEGFR2; [7]): 100% | remaining activity at 1 µM (VEGFR2; [8]): 95.6% | remaining activity at 10 µM (VEGFR2; [9]): 99.7% | remaining activity at 10 µM (VEGFR2; [10]): 99.4% | remaining activity at 10 µM (VEGFR2; [11]): 100%

CN(C)CCCN1c2ccccc2Sc2ccc(Cl)cc21 [Chlorpromazine]
% Enzyme Activity (relative to DMSO controls), Average (MAP2K2; 1 uM, Average): 103.60% | % Enzyme Activity (relative to DMSO controls), Data 1 (MAP2K2; 1 uM, replicate Data 1): 103.14% | % Enzyme Activity (relative to DMSO controls), Data 2 (MAP2K2; 1 uM, replicate Data 2): 104.05% | % Enzyme Activity (relative to DMSO controls), Average (MAP2K2; 10 uM, Average): 101.38% | % Enzyme Activity (relative to DMSO controls), Data 1 (MAP2K2; 10 uM, replicate Data 1): 102.43% | % Enzyme Activity (relative to DMSO controls), Data 2 (MAP2K2; 10 uM, replicate Data 2): 100.33% | % Enzyme Activity (relative to DMSO controls), Average (VEGFR2; 1 uM, Average): 105.46% | % Enzyme Activity (relative to DMSO controls), Data 1 (VEGFR2; 1 uM, replicate Data 1): 101.88% | % Enzyme Activity (relative to DMSO controls), Data 2 (VEGFR2; 1 uM, replicate Data 2): 109.04% | % Enzyme Activity (relative to DMSO controls), Average (VEGFR2; 10 uM, Average): 105.67% | % Enzyme Activity (relative to DMSO controls), Data 1 (VEGFR2; 10 uM, replicate Data 1): 105.24% | % Enzyme Activity (relative to DMSO controls), Data 2 (VEGFR2; 10 uM, replicate Data 2): 106.1%

C[C@@H]1CCN(C(=O)CC#N)C[C@@H]1N(C)c1ncnc2[nH]ccc12 [Tofacitinib]
IC50 at 48 h [1]: > 50 µM | IC50 at 48 h [2]: > 50 µM

CC(C)C[C@H](NC(=O)[C@H](Cc1ccccc1)NC(=O)c1cnccn1)B(O)O [Bortezomib]
% Enzyme Activity (relative to DMSO controls), Average (DAPK1; 1 uM): 99.82% | % Enzyme Activity (relative to DMSO controls), Data 1 (DAPK1; 1 uM): 95.51% | % Enzyme Activity (relative to DMSO controls), Data 2 (DAPK1; 1 uM): 104.12% | % Enzyme Activity (relative to DMSO controls), Average (DAPK1; 10 uM): 92.04% | % Enzyme Activity (relative to DMSO controls), Data 1 (DAPK1; 10 uM): 94.13% | % Enzyme Activity (relative to DMSO controls), Data 2 (DAPK1; 10 uM): 89.94% | % Enzyme Activity (relative to DMSO controls), Average (CDC7; 1 uM): 74.98% | % Enzyme Activity (relative to DMSO controls), Data 1 (CDC7; 1 uM): 77.59% | % Enzyme Activity (relative to DMSO controls), Data 2 (CDC7; 1 uM): 72.36% | % Enzyme Activity (relative to DMSO controls), Average (CDC7; 10 uM): 84.55% | % Enzyme Activity (relative to DMSO controls), Data 1 (CDC7; 10 uM): 84.43% | % Enzyme Activity (relative to DMSO controls), Data 2 (CDC7; 10 uM): 84.67%
